The term IC50 denotes the concentration at which inhibition is half-maximal. Higher therefore signals weaker potency.

The target of the first experiment is ERK2 enzyme (Homo sapiens (Human), UniProt P28482). Briefly: Inhibition assay of ERK (Z'-LYTE kinase assay, Ser/Thr 3 peptide substrate). Format: biochemical. The following applies: In vitro ERK2 enzyme, 100 μM ATP. The protocol: The inhibition of ERK activity by the compounds disclosed herein was determined using the Z′-LYTE kinase assay kit (Life Technologies) with a Ser/Thr 3 peptide substrate (Life Technologies) according to manufacturers' instructions. […] The IC50 values for the compounds were determined with 3-fold serial dilutions in duplicate. […] The final DMSO concentration in the assay was 1%. Final reaction volume was 20 μL/well in 384-well plates. Kinase reactions were conducted or 1 hour followed by the assay development reaction (1 hour) in a 20 ul/well in a 384 well plate format.
ERK2 enzyme, sequence (P28482 whole entry): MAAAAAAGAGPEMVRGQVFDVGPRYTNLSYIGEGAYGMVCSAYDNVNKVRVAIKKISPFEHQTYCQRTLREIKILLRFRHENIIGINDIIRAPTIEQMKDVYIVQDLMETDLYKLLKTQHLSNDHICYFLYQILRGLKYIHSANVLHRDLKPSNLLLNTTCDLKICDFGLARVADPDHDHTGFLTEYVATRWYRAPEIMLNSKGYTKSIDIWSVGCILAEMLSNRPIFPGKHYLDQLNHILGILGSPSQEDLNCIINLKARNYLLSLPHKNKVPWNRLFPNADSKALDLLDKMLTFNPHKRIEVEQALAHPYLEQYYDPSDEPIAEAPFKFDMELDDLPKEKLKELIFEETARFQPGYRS
`Cc1cc(-c2n[nH]c3cc4c(cc23)CN([C@@H]2CCCN(CC3CC5CCC3C5)C2)C(=O)N4)ccn1` (stereo partly drawn) [Compound 142] gave an IC50 of less than 50 nM. As for `Cc1cc(-c2n[nH]c3cc4c(cc23)CN([C@@H]2CCCN(C(C)c3cccc(Cl)c3)C2)C(=O)N4)ccn1` (stereo partly drawn) [Compound 180], the 50% inhibitory concentration (IC50) is 50 to 250 nM.

Regarding `O=C1Nc2cc3[nH]nc(-c4ccc(F)cc4)c3cc2CN1Cc1ccc(F)c(Cl)c1` [Compound 40], the IC50 is 50 to 250 nM. Same read-out and setting: the figure for `Cc1cc(-c2n[nH]c3cc4c(cc23)CN([C@@H]2CCCN(CCc3cccc(Cl)c3)C2)C(=O)N4)ccn1` [Compound 164] is less than 50 nM; for `Cc1cc(-c2n[nH]c3cc4[nH]c(=O)n(Cc5ccccc5)c(=O)c4cc23)ccn1` [Compound 27] it is less than 50 nM. In the case of `COc1cccc(F)c1CN1CCC[C@@H](N2Cc3cc4c(-c5ccnnc5)n[nH]c4cc3NC2=O)C1` [Compound 126], the IC50 is less than 50 nM. Still for that read-out and setting: as for `Cc1cc(-c2n[nH]c3cc4c(cc23)CN(C2CCN(CCc3ccccc3)CC2)C(=O)N4)ccn1` [Compound 157], the figure is 50 to 250 nM. The compound `O=C1Nc2cc3[nH]nc(-c4ccnnc4)c3cc2CN1[C@@H]1CCCN(Cc2ccccc2F)C1` [Compound 121] gave an IC50 of less than 50 nM. The same measure, in the same setting: as for `O=C1Nc2cc3[nH]nc(C4CC4)c3cc2CN1Cc1ccc(F)c(Cl)c1` [Compound 42], the figure is 50 to 250 nM; as for `Cc1cc(-c2n[nH]c3cc4c(cc23)CN([C@@H]2CCCN(Cc3c(F)cccc3F)C2)C(=O)N4)ccn1` [Compound 143], less than 50 nM.

Take `Cc1cc(-c2n[nH]c3cc4c(cc23)CN([C@@H]2CCCN(CCc3ccccc3)C2)C(=O)N4)ccn1` [Compound 145]: the IC50 is less than 50 nM.

Consider `CCC(c1ccccc1)c1cc2cc3c(-c4ccnc(C)c4)n[nH]c3cc2[nH]c1=O` (stereo not drawn) [Compound 64], for which the IC50 was less than 50 nM. On the same count and under the same terms, as for `Cc1cc(-c2n[nH]c3cc4c(cc23)CN([C@@H]2CCCN(Cc3ccccc3Cl)C2)C(=O)N4)ccn1` [Compound 158], the figure is less than 50 nM; as for `Cc1cc(-c2n[nH]c3cc4c(cc23)CN(C2CN(Cc3ccccc3)C2)C(=O)N4)ccn1` [Compound 191], less than 50 nM; as for `Cc1cc(-c2n[nH]c3cc4c(cc23)CN(C2CCOCC2)C(=O)N4)ccn1` [Compound 44], less than 50 nM. In turn, `Cc1cc(-c2n[nH]c3cc4c(cc23)CN([C@H](C)CO)C(=O)N4)ccn1` [Compound 54] displayed a 50% inhibitory concentration (IC50) of less than 50 nM. Still for that read-out and setting: as for `Cc1cc(-c2n[nH]c3cc4c(cc23)CN([C@@H]2CCCN(CCC(C)C)C2)C(=O)N4)ccn1` [Compound 169], the figure is less than 50 nM; as for `COc1ncc(-c2n[nH]c3cc4c(cc23)CN(Cc2cccc(C(F)(F)F)c2)C(=O)N4)cn1` [Compound 119], less than 50 nM; as for `Cc1ccc(-c2n[nH]c3cc4c(cc23)CN(Cc2cccc(Cl)c2)C(=O)N4)cn1` [Compound 58], less than 50 nM. The same measure, in the same setting: the figure for `COc1ncc(-c2n[nH]c3cc4c(cc23)CN(Cc2cc(F)cc(F)c2)C(=O)N4)cn1` [Compound 88] is less than 50 nM; for `Cc1cc(-c2n[nH]c3cc4c(cc23)CN(Cc2cccc(Cl)c2)C(=O)N4)cc(C)n1` [Compound 77] it is less than 50 nM.

The experiment is the same for the next values; noted with them: In vitro, ERK2 enzyme 0.47 ng/μL, 100 μM ATP.
As for `Cc1cc(-c2n[nH]c3cc4[nH]c(=O)c(CC5CCCCC5)cc4cc23)ccn1` [Compound 266], the IC50 is less than 50 nM. The same measure, in the same setting: the figure for `Cc1cnccc1-c1n[nH]c2cc3[nH]c(=O)c(C(C)c4ccccc4)cc3cc12` (stereo not drawn) [Compound 343] is 50 to 250 nM; for `Cc1cc(-c2n[nH]c3cc4c(cc23)CN(C(C)c2nccs2)C(=O)N4)ccn1` (stereo not drawn) [Compound 234] it is less than 50 nM; for `CC(c1ccccc1)c1cc2cc3c(-c4cnc(N)nc4)n[nH]c3cc2[nH]c1=O` (stereo not drawn) [Compound 334] it is less than 50 nM. The same measure, in the same setting: as for `COc1ccc(-c2n[nH]c3cc4c(cc23)CN([C@@H]2CN(CC(F)(F)F)C[C@H]2c2ccccc2)C(=O)N4)cn1` [Compound 374], the figure is less than 50 nM; as for `Cc1cc(-c2n[nH]c3cc4c(cc23)CN([C@@H]2CN(CC(F)F)C[C@H]2c2ccccc2)C(=O)N4)ccn1` (mixture of isomers) [Compound 362], less than 50 nM; as for `COc1ccc(-c2n[nH]c3cc4c(cc23)CN([C@@H]2CCCN(Cc3ccc(F)cc3F)C2)C(=O)N4)cn1` [Compound 273], less than 50 nM.

`C=C(c1ccccc1)c1cc2cc3c(-c4ccnc(C)c4)n[nH]c3cc2[nH]c1=O` [Compound 269] came in with an IC50 of less than 50 nM. On the same count and under the same terms, the figure for `Cc1ccc(-c2n[nH]c3cc4c(cc23)CN([C@@H]2CCCN(Cc3ccccc3)C2)C(=O)N4)cn1` [Compound 275] is less than 50 nM; for `Cc1cc(-c2n[nH]c3cc4[nH]c(=O)c(C(CO)c5ccccc5)cc4cc23)ccn1` (stereo not drawn) [Compound 328] it is less than 50 nM.

`Cc1cc(-c2n[nH]c3cc4c(cc23)CN([C@@H]2CCCN(c3cccc(C)n3)C2)C(=O)N4)ccn1` [Compound 238] returned an IC50 of 50 to 250 nM. On the same count and under the same terms, as for `Cc1cc(-c2n[nH]c3cc4c(cc23)CN([C@H](C)c2ccccc2)C(=O)N4)cc(C)n1` [Compound 377], the figure is less than 50 nM; as for `Cc1cc(-c2n[nH]c3cc4c(cc23)CN(Cc2ccccc2)C(=O)N4)cc(C)n1` [Compound 229], less than 50 nM. Same read-out and setting: as for `CC(c1ccccc1)c1cc2cc3c(-c4cnn(C)c4)n[nH]c3cc2[nH]c1=O` (stereo not drawn) [Compound 333], the figure is less than 50 nM; as for `Nc1ncc(-c2n[nH]c3cc4c(cc23)CN([C@@H]2CN(CC(F)(F)F)C[C@H]2c2ccccc2)C(=O)N4)cn1` [Compound 351], less than 50 nM. Same read-out and setting: the figure for `Cc1cc(-c2n[nH]c3cc4c(cc23)CN([C@@H]2CCCN(Cc3ccsc3)C2)C(=O)N4)ccn1` [Compound 252] is less than 50 nM; for `Cc1cc(-c2n[nH]c3cc4c(cc23)CN([C@@H]2CCN(CC(F)(F)F)C2)C(=O)N4)ccn1` [Compound 214] it is less than 50 nM; for `CN(C)CCN1CCN(c2n[nH]c3cc4c(cc23)CN(Cc2ccc(F)c(Cl)c2)C(=O)N4)CC1` [Compound 260] it is 250 to 1000 nM. `Cc1cc(-c2n[nH]c3cc4c(cc23)CN(Cc2nc(C)cs2)C(=O)N4)ccn1` [Compound 246] showed an IC50 of less than 50 nM. On the same count and under the same terms, the figure for `Cc1cc(-c2n[nH]c3cc4c(cc23)CN(Cc2ccccc2C(F)(F)F)C(=O)N4)ccn1` [Compound 218] is less than 50 nM. On the same count and under the same terms, as for `Cc1cc(-c2n[nH]c3cc4c(cc23)CN(Cc2cccs2)C(=O)N4)cc(C)n1` [Compound 227], the figure is less than 50 nM; as for `O=C1Nc2cc3[nH]nc(-c4ccc(N5CCOCC5)nc4)c3cc2CN1Cc1cccc(Cl)c1` [Compound 231], less than 50 nM; as for `Cc1cc(-c2n[nH]c3cc4c(cc23)CN([C@@H]2CN(C(C)C)C[C@H]2c2ccccc2)C(=O)N4)ccn1` (racemic) [Compound 279], less than 50 nM. Same read-out and setting: the figure for `Cc1cc(-c2n[nH]c3cc4c(cc23)CN(CC2CCOCC2)C(=O)N4)ccn1` [Compound 211] is less than 50 nM; for `Cc1cc(-c2n[nH]c3cc4c(cc23)CN([C@@H]2CCN(c3ccc(F)cn3)C2)C(=O)N4)ccn1` [Compound 257] it is 50 to 250 nM; for `Cc1ncc(-c2n[nH]c3cc4c(cc23)CN([C@@H]2CCN(CC(F)(F)F)C2)C(=O)N4)cn1` [Compound 282] it is less than 50 nM. On to `Cc1cc(-c2n[nH]c3cc4c(cc23)CN([C@@H]2CCCN(Cc3ccc(C)s3)C2)C(=O)N4)ccn1` [Compound 245], for which the IC50 is less than 50 nM.
